“And” between values parts separate entries of the source, which are not always exact repeats. Identical values can stand only once.

Data set [1] concerns the target MPro^WT. The settings on record: read-out: GC373 binding (Kd), determined by ITC, ref [11],[13]; cited from earlier work. (In general: In ITC the heat of successive injections is recorded.)
The target of data set [2] is MPro^1–199 (catalytic domain). The settings on record: read-out: GC373 binding (Kd), determined by ITC, ref [11],[13]; cited from earlier work.
Data set [3] addresses MPro^M (E290A and R298A mutations). The following applies: read-out: GC373 binding (Kd), determined by ITC, ref [11],[13]; cited from earlier work.
The test system of data set [4] is nsp4/nsp5 cleavage site. The format is biochemical, SARS-CoV-2.

Take `CC(C)C[C@H](NC(=O)OCc1ccccc1)C(=O)N[C@H](C=O)C[C@@H]1CCNC1=O` [GC373]: the dissociation constant (Kd) (in general, the equilibrium constant for the complex coming apart) in data set [1] was 150 nM; in data set [2], 32 ± 5 µM; in data set [3], 6.13 ± 0.3 µM.
Turning to “^(−25)MPro^1–199: precursor with 25 nsp4 residues appended to the N-terminus of catalytic domain MPro^1–199”, in data set [4], the “% Conversion at 15 h” value was 32.2% and 32.4%; the “% Conversion at 24 h” value was 42.2% and 43.2%; the “Δ[P] at 24 h” value is 40.5 ± 0.4 µM and 20.7 ± 0.2 µM.

The record behind these values is article PMC10643566, “Insights into the mechanism of SARS-CoV-2 main protease autocatalytic maturation from model precursors” (Communications Biology, 2023).
